Data as given in article PMC9684079, “Pharmacological targeting of glutamatergic neurons within the brainstem for weight reduction” (Nature Metabolism, 2022).

Tests used:
Assay in all cases: biochemical
Design in all cases: Cerep/Eurofins selectivity panel, receptors, channels and transporters, per cent inhibition at 10 uM
Conditions in all cases: read-out: % Inhibition
APJ = target: T1, APJ (Homo sapiens, UniProt P35414)
T1 construct: gene APLNR

Adenosine A2A = target: T2, Adenosine A2A (Homo sapiens, UniProt P29274)
T2 construct: gene ADORA2A

Adrenergic β1 = target: T3, Adrenergic β1 (Homo sapiens, UniProt P08588)
T3 construct: gene ADRB1
T3 sequence (P08588 whole entry): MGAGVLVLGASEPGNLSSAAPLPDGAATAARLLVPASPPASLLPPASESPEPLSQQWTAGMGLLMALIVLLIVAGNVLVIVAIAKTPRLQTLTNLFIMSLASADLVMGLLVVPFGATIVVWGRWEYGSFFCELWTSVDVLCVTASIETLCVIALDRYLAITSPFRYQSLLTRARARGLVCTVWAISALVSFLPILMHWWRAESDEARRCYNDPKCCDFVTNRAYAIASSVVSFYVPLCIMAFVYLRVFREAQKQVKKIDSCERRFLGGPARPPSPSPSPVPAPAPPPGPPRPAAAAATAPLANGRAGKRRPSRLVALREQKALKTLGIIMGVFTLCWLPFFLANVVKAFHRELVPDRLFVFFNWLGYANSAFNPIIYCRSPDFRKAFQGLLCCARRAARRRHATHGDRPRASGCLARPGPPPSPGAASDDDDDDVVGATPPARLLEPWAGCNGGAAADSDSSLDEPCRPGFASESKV

Angiotensin AT1 = target: T4, Angiotensin AT1 (Homo sapiens, UniProt P30556)
T4 construct: gene AGTR1

Angiotensin AT2 = target: T5, Angiotensin AT2 (Homo sapiens, UniProt P50052)
T5 construct: gene AGTR2
T5 sequence (P50052 whole entry): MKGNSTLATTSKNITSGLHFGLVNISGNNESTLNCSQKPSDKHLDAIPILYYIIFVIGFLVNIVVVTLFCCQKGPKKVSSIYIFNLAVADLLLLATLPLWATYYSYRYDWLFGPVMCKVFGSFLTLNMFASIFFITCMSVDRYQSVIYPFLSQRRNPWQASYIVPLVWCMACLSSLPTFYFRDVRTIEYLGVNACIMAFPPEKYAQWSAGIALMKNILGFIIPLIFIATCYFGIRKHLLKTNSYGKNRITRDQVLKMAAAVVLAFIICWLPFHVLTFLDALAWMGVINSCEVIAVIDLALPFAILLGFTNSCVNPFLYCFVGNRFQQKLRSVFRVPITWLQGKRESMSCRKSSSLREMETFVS

Bradykinin B2 = target: T6, Bradykinin B2 (Homo sapiens, UniProt P30411)
T6 construct: gene BDKRB2

Dopamine D2L = target: T7, Dopamine D2L (Homo sapiens, UniProt P14416)
T7 construct: gene DRD2; long isoform D2L
T7 sequence (P14416 whole entry, canonical isoform): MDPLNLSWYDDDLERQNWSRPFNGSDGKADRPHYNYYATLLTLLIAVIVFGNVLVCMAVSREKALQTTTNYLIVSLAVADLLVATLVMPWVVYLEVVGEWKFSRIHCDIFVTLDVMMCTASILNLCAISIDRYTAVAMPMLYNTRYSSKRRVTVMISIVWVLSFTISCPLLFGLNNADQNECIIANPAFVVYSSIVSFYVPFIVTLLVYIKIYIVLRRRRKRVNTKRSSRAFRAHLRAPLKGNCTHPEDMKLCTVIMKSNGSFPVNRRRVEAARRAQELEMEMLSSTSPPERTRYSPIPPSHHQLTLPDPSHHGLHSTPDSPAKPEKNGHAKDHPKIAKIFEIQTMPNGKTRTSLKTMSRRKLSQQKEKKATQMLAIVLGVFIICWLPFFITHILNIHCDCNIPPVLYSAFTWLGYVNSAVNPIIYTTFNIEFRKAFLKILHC

Dopamine D3 = target: T8, Dopamine D3 (Homo sapiens, UniProt P35462)
T8 construct: gene DRD3
T8 sequence (P35462 whole entry): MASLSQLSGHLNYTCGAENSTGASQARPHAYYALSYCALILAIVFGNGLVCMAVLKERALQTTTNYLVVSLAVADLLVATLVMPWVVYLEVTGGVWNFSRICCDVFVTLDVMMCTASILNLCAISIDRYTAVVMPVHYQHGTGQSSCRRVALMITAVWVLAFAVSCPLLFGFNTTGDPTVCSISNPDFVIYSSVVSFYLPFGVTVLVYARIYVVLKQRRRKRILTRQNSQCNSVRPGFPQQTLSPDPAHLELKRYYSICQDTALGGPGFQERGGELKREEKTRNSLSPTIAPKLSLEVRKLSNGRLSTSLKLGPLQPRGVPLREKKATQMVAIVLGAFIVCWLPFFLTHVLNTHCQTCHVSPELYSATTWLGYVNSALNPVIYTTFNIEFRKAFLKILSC

GABAB1A = target: T9, GABAB1A (Homo sapiens, UniProt Q9UBS5)
T9 construct: gene GABBR1; isoform 1A

GABAB1B = target: T10, GABAB1B (Homo sapiens, UniProt Q9UBS5)
T10 construct: gene GABBR1; isoform 1B

Histamine H1 = target: T11, Histamine H1 (Homo sapiens, UniProt P35367)
T11 construct: gene HRH1
T11 sequence (P35367 whole entry): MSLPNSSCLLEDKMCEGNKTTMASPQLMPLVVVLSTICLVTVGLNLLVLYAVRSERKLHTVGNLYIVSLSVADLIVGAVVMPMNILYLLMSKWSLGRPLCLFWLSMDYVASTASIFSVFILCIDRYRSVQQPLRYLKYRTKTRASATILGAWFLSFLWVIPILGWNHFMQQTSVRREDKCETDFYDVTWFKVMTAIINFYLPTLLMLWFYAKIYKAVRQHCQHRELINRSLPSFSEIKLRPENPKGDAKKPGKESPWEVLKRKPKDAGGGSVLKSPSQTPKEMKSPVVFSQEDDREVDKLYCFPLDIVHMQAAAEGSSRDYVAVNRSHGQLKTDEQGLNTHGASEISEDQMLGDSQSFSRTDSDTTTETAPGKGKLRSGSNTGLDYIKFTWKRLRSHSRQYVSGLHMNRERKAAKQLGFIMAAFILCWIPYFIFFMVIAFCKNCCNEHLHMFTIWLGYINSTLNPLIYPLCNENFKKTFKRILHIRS

Histamine H3 = target: T12, Histamine H3 (Homo sapiens, UniProt Q9Y5N1)
T12 construct: gene HRH3
T12 sequence (Q9Y5N1 whole entry): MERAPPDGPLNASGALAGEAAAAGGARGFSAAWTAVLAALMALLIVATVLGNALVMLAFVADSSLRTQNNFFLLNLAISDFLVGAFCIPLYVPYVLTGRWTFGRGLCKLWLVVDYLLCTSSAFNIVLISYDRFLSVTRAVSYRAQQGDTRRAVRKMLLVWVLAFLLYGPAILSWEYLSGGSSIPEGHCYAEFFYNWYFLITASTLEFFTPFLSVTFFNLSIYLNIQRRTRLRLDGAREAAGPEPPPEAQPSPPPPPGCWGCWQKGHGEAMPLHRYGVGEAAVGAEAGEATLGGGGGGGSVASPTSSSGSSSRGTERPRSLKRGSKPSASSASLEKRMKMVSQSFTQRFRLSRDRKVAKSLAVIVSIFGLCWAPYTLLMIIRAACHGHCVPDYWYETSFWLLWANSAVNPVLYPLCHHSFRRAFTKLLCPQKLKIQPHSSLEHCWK

Opiate δ1 (OP1, DOP) = target: T13, Opiate δ1 (OP1, DOP) (Homo sapiens, UniProt P41143)
T13 construct: gene OPRD1
T13 sequence (P41143 whole entry): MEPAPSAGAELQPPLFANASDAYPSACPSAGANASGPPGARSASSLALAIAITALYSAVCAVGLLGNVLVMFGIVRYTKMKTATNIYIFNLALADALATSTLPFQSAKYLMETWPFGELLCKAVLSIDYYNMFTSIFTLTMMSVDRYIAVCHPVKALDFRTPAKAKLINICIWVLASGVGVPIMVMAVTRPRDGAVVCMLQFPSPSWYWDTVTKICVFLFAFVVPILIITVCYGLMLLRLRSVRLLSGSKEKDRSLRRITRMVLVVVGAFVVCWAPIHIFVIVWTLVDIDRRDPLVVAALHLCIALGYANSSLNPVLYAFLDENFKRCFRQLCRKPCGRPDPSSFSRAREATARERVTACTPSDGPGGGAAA

Opiate μ(OP3, MOP) = target: T14, Opiate μ(OP3, MOP) (Homo sapiens, UniProt P35372)
T14 construct: gene OPRM1
T14 sequence (P35372 whole entry): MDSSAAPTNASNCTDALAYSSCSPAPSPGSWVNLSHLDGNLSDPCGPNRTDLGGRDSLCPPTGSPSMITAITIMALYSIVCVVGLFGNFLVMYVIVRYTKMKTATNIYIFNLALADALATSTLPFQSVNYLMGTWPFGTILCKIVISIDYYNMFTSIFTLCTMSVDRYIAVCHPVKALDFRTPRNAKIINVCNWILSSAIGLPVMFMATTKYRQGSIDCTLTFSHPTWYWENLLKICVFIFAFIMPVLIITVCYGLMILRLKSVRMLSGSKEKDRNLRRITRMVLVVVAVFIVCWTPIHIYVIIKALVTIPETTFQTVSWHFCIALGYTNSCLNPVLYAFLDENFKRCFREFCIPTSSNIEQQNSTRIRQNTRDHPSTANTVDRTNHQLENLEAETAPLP

Progesterone PR-B = target: T15, Progesterone PR-B (Homo sapiens, UniProt P06401)
T15 construct: gene PGR; PR-B isoform

[1] = target: T16, Serotonin (5-Hydroxytryptamine) 5-HT2B (Homo sapiens, UniProt P41595)
T16 construct: gene HTR2B

[2] = target: T17, Serotonin (5-Hydroxytryptamine) 5-HT3 (Homo sapiens, UniProt P46098)
T17 construct: gene HTR3A

Tachykinin NK1 = target: T18, Tachykinin NK1 (Homo sapiens, UniProt P25103)
T18 construct: gene TACR1

Tachykinin NK2 = target: T19, Tachykinin NK2 (Homo sapiens, UniProt P21452)
T19 construct: gene TACR2
T19 sequence (P21452 whole entry): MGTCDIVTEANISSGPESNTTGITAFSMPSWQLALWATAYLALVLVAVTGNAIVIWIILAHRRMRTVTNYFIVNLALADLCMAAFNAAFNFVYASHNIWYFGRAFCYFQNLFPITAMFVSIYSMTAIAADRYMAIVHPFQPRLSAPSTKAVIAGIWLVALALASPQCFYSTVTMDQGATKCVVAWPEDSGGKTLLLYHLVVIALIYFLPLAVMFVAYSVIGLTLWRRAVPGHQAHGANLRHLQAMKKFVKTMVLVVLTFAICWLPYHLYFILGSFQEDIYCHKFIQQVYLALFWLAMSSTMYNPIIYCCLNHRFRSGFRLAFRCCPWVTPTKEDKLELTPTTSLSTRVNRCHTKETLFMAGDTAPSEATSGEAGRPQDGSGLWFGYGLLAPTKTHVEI

Tachykinin NK3 = target: T20, Tachykinin NK3 (Homo sapiens, UniProt P29371)
T20 construct: gene TACR3

[3] = target: T21, Transporter, Dopamine (DAT) (Homo sapiens, UniProt Q01959)
T21 construct: gene SLC6A3
T21 sequence (Q01959 whole entry): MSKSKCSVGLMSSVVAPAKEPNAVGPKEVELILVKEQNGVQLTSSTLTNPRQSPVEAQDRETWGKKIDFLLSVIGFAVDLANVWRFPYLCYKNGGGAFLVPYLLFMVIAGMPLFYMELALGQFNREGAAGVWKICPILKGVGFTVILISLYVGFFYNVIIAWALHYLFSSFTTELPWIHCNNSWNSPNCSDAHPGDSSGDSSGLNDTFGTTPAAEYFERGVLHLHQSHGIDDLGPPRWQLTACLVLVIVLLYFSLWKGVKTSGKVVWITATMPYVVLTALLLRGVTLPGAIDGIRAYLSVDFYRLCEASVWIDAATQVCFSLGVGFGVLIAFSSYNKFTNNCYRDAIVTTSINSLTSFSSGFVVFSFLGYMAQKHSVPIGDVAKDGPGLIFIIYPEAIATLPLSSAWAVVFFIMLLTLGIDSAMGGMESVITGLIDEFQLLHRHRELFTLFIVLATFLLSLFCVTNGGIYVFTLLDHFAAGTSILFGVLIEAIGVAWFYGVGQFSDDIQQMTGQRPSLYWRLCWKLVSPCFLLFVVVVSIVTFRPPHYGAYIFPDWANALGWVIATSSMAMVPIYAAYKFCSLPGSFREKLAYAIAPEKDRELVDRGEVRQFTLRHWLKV

[4] = target: T22, Transporter, Norepinephrine (NET) (Homo sapiens, UniProt P23975)
T22 construct: gene SLC6A2

Vasopressin V1a = target: T23, Vasopressin V1a (Homo sapiens, UniProt P37288)
T23 construct: gene AVPR1A

Vasopressin V1b = target: T24, Vasopressin V1b (Homo sapiens, UniProt P47901)
T24 construct: gene AVPR1B

T1 sequence (P35414 whole entry): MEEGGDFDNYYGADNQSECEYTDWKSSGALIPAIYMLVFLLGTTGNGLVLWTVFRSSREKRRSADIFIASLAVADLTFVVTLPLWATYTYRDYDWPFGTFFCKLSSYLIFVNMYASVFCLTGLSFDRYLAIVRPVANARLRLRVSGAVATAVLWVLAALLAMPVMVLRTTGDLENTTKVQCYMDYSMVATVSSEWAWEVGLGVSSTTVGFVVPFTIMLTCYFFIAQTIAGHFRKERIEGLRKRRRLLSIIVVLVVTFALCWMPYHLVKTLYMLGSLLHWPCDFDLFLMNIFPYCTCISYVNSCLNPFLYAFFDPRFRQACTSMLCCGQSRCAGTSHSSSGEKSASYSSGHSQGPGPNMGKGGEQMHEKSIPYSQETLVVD

C[C@]1(Nc2cnc(C(F)(F)F)cn2)CCC[C@@H]1NC(=O)c1ncccc1-n1nccn1 [CVN45502]
inhibition at 10 µM (APJ): -4% | inhibition at 10 µM (Adenosine A2A): 2% | inhibition at 10 µM (Adrenergic β1): -14% | inhibition at 10 µM (Angiotensin AT1): -1% | inhibition at 10 µM (Angiotensin AT2): 5% | inhibition at 10 µM (Bradykinin B2): -18% | inhibition at 10 µM (Dopamine D2L): 7% | inhibition at 10 µM (Dopamine D3): -2% | inhibition at 10 µM (GABAB1A): -8% | inhibition at 10 µM (GABAB1B): -1% | inhibition at 10 µM (Histamine H1): 2% | inhibition at 10 µM (Histamine H3): -4% | inhibition at 10 µM (Opiate δ1 (OP1, DOP)): -4% | inhibition at 10 µM (Opiate μ(OP3, MOP)): -3% | inhibition at 10 µM (Progesterone PR-B): 21% | inhibition at 10 µM [1]: 4% | inhibition at 10 µM [2]: -9% | inhibition at 10 µM (Tachykinin NK1): 12% | inhibition at 10 µM (Tachykinin NK2): -8% | inhibition at 10 µM (Tachykinin NK3): 27% | inhibition at 10 µM [3]: 4% | inhibition at 10 µM [4]: -6% | inhibition at 10 µM (Vasopressin V1a): -14% | inhibition at 10 µM (Vasopressin V1b): -8%
